# Target: Stromelysin (Homo sapiens, UniProt P08254)
# Assay: Stromelysin inhibition, in vitro particle concentration fluorescence assay (TABLE 1, MMP Inhibition Constants)
# Type: biochemical
# Conditions: fluorescein/biotin substrate, MMP buffer pH 7.5, room temperature, 15 min preincubation with enzyme, 1-3 h with substrate
# Protocol: Inhibitory activity is evaluated in one or more of the MMP enzymes (stromelysin, gelatinase, and collagenase) in vitro using particle concentration fluorescence assay. An inhibitor binds to MMP enzymes which prevents the degradation of a substrate by stromelysin, gelatinase, or collagenase. The substrate has attached to it a fluorescein and a biotin moiety. The intact substrate then binds to an avidin-coated particle via the biotin moiety. Once the particle is washed and dried, a fluorescent signal is generated since the fluorescent group is attached to the particle. Without an inhibitor present, the substrate is degraded by MMP enzymes and the fluorescein group is removed, therefore, no fluorescent signal can be detected. Testing compounds are dissolved in DMSO to the desired concentration, then the solutions are diluted to 1:5 with MMP buffer (50 mM Tris-HCl, pH 7.5; 150 mM NaCl; 0.02% NaN3). Serial two-fold dilutions of each compound are prepared. A concentrated, activated enzyme solution is transferred into each plate of the testing compounds, and the mixture is incubated at room temperature for 15 minutes. Thawed MMP substrate is then added into all plates, and the plates are incubated in the dark for 1-3 hours at room temperature. At this point, the substrate mixture is mixed with 0.1% avidin-coated polystyrene particles. After 15 minutes, the fluorescence values are measured following filtration and washing of the beads. Ki values are then calculated.
# Stromelysin, sequence (P08254 100-477): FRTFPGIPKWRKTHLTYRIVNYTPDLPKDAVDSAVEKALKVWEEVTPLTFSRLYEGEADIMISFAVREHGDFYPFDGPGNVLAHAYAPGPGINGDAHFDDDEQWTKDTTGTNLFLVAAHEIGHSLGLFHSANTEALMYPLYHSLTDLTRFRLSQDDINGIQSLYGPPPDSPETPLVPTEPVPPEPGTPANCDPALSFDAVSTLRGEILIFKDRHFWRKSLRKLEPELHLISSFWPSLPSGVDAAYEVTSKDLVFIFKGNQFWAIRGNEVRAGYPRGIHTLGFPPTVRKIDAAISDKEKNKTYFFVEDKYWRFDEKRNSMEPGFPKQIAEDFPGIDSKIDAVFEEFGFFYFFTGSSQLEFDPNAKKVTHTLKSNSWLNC
row,SMILES,Ki [µM]
1,"O=C(NC(C(=O)Nc1n[nH]c(=S)s1)c1ccccc1)OCc1ccccc1 (stereo not drawn) [Example 1, [2-[(4,5-dihydro-5-thioxo-1,3,4-thiadiazol-2-yl)amino]-2-oxo-1-phenylethyl]carbamic acid, phenylmethyl ester]",1.21
2,"O=C(N[C@@H](CCc1ccccc1)C(=O)Nc1n[nH]c(=S)s1)OCc1ccccc1 [Example 2, (S)-[1-[[(4,5-dihydro-5-thioxo-1,3,4-thiadiazol-2-yl)amino]carbonyl]-3-phenylpropyl]carbamic acid phenylmethyl ester]",13.9
3,"CC[C@H](C)[C@H](NC(=O)OCc1ccccc1)C(=O)Nc1n[nH]c(=S)s1 [Example 3, [S-(R*,R*)]-[1-[[(4,5-dihydro-5-thioxo-1,3,4-thiadiazol-2-yl)amino]carbonyl]-2-methylbutyl[carbamic acid phenylmethyl ester]",1.24
4,"CC[C@H](C)[C@H](NC(=O)OCC1c2ccccc2-c2ccccc21)C(=O)Nc1n[nH]c(=S)s1 [Example 4, [S-(R*,R*)]-[1-[[(4,5-dihydro-5-thioxo-1,3,4-thiadiazol-2-yl)amino]carbonyl]-2-methylbutyl]carbamic acid 9H-fluoren-9-yl-methyl ester]",0.95
5,"CCCCC(NC(=O)OCc1ccccc1)C(=O)Nc1n[nH]c(=S)s1 (stereo not drawn) [Example 5, [1-[[(4,5-dihydro-5-thioxo-1,3,4-thiadiazol-2-yl)amino]carbonyl]pentyl]carbamic acid phenylmethyl ester]",2.42
6,"CC(C)(C)[C@H](NC(=O)OCc1ccccc1)C(=O)Nc1n[nH]c(=S)s1 [Example 6, (S)-[1-[[(4,5-dihydro-5-thioxo-1,3,4-thiadiazol-2-yl)amino]carbonyl]-2,2-dimethylpropyl]carbamic acid phenylmethyl ester]",0.53
7,"CCC[C@H](NC(=O)OCc1ccccc1)C(=O)Nc1n[nH]c(=S)s1 [Example 7, (S)-[1-[[(4,5-dihydro-5-thioxo-1,3,4-thiadiazol-2-yl)amino]carbonyl]butyl]carbamic acid phenylmethyl ester]",2.31
8,"O=C(NC(COCc1ccccc1)C(=O)Nc1n[nH]c(=S)s1)OCc1ccccc1 (stereo not drawn) [Example 8, [2-[(4,5-dihydro-5-thioxo-1,3,4-thiadiazol-2-yl)amino]-2-oxo-1-[(phenylmethoxy)methyl]ethyl]carbamic acid phenylmethyl ester]",8.06
9,"O=C(NC(CSCc1ccccc1)C(=O)Nc1n[nH]c(=S)s1)OCc1ccccc1 (stereo not drawn) [Example 9, [2-[(4,5-dihydro-5-thioxo-1,3,4-thiadiazol-2-yl)amino]-2-oxo-1-[[(phenylmethyl)thio]methyl]ethyl]carbamic acid phenylmethyl ester]",9.45
10,"CCCCCCCC(NC(=O)OCc1ccccc1)C(=O)Nc1n[nH]c(=S)s1 (stereo not drawn) [Example 10, [1-[[(4,5-dihydro-5-thioxo-1,3,4-thiadiazol-2-yl)amino]carbonyl]octyl]carbamic acid phenylmethyl ester]",6.32
11,O=C(N[C@@H](CC1CCCCC1)C(=O)Nc1n[nH]c(=S)s1)OCc1ccccc1 [Example 11],6.1
12,"O=C(N[C@H](C(=O)Nc1n[nH]c(=S)s1)C1CCCCC1)OCc1ccccc1 [Example 12, (S)-[1-(cyclohexyl)-2-[(4,5-dihydro-5-thioxo-1,3,4-thiadiazol-2-yl)amino]-2-oxoethyl]carbamic acid phenylmethyl ester]",0.84
13,"CC(=O)NC(C(=O)Nc1n[nH]c(=S)s1)c1ccccc1 (stereo not drawn) [Example 13, α-(acetylamino)-N-(4,5-dihydro-5-thioxo-1,3,4-thiadiazol-2-yl)-benzeneacetamide]",1.8

# Results, then the compound that gave them:
row,Ki [µM],SMILES
1,1.91,"C=CC[C@H](C(=O)Nc1n[nH]c(=S)s1)[C@@H](CC(C)C)NC(=O)OCc1ccccc1 (relative stereo) [Example 55, (R*,S*)-[2-[[(4,5-dihydro-5-thioxo-1,3,4-thiadiazol-2-yl)amino]carbonyl]-1-(2-methylpropyl)-4-pentenyl]carbamic acid phenylmethyl ester]"
2,1.7,"CC(C)C[C@@H](NC(=O)OCc1ccccc1)[C@H](Cc1ccccc1)C(=O)Nc1n[nH]c(=S)s1 (relative stereo) [Example 56, (R*,S*)-[1-[2-[(4,5-dihydro-5-thioxo-1,3,4-thiadiazol-2-yl)amino]-oxo-1(phenylmethyl)ethyl]-3-methylbutyl]carbamic acid phenylmethyl ester]"
3,10.3,"O=C(Nc1n[nH]c(=S)s1)[C@@H]1CC[C@H](C(=O)N(Cc2ccccc2)OCc2ccccc2)C1 (relative stereo) [Example 60, cis-N'-(4,5-dihydro-5-thioxo-1,3,4-thiadiazol-2-yl)-N-(phenylmethoxy)-N-(phenylmethyl)-1,3-cyclopentane dicarboxamide]"
4,0.64,"O=C(CCc1ccccc1)NC(C(=O)Nc1n[nH]c(=S)s1)c1ccccc1 (stereo not drawn) [Example 14, N-[2-[(4,5-dihydro-5-thioxo-1,3,4-thiadiazol-2-yl)amino]-2-oxo-1-phenylethyl]benzenepropanamide]"
5,1.38,"O=C(CCCCc1ccccc1)NC(C(=O)Nc1n[nH]c(=S)s1)c1ccccc1 (stereo not drawn) [Example 15, N-[2-[(4,5-dihydro-5-thioxo-1,3,4-thiadiazol-2-yl)amino]-2-oxo-1-phenylethyl]benzenepentanamide]"
6,0.38,"O=C(COCc1ccccc1)NC(C(=O)Nc1n[nH]c(=S)s1)c1ccccc1 (stereo not drawn) [Example 16, N-(4,5-dihydro-5-thioxo-1,3,4-thiadiazol-2-yl)-α-[[(phenylmethoxy)acetyl]amino]benzeneacetamide]"
7,1.77,"CC(=O)NCSC(C)(C)C(NC(=O)OCc1ccccc1)C(=O)Nc1n[nH]c(=S)s1 (stereo not drawn) [Example 17, (2-(((acetylamino)methyl)thio)-1-(((4,5-dihydro-5--thioxo-1,3,4-thiadiazol-2-yl)amino)carbonyl)-2-methylpropyl)carbamic acid phenylmethyl ester]"
8,1.8,"CC(C)(C)OC(=O)NC(C(=O)Nc1n[nH]c(=S)s1)C(C)(C)/C=C\c1ccccc1 (stereo not drawn) [Example 18, (Z)-(1-(((4,5-dihydro-5-thioxo-1,3,4-thiadiazol-2-yl)amino)carbonyl)-2,2-dimethyl-4-phenyl-3-butenyl)carbamic acid 1,1-dimethylethyl ester]"
9,6.2,"CC(C)(C)OC(=O)NC(C(=O)Nc1n[nH]c(=S)s1)C(C)(C)CCc1ccccc1 (stereo not drawn) [Example 19, (1-(((4,5-dihydro-5-thioxo-1,3,4-thiadiazol-2-yl)amino)carbonyl)-2,2-dimethyl-4-phenylbutyl)carbamic acid 1,1-dimethylethyl ester]"
10,3.06,"CC(C)(C)OC(=O)NC(C(=O)Nc1n[nH]c(=S)s1)C(C)(C)/C=C/Cc1ccccc1 (stereo not drawn) [Example 20, (E)-(1-(((4,5-dihydro-5-thioxo-1,3,4-thiadiazol-2-yl)amino)carbonyl)-2,2-dimethyl-5-phenyl-3-pentenyl)carbamic acid 1,1-dimethylethyl ester]"
11,2.72,"CC(C)(C)OC(=O)NC(C(=O)Nc1n[nH]c(=S)s1)C(C)(C)CCCc1ccccc1 (stereo not drawn) [Example 21, (1-(((4,5-dihydro-5-thioxo-1,3,4-thiadiazol-2-yl)amino)carbonyl)-2,2-dimethyl-5-phenylpentyl)carbamic acid 1,1-dimethylethyl ester]"
12,3.51,"C=CC(C)(C)C(NC(=O)OC(C)(C)C)C(=O)Nc1n[nH]c(=S)s1 (stereo not drawn) [Example 22, (1-(((4,5-dihydro-5-thioxo-1,3,4-thiadiazol-2-yl)amino)carbonyl)-2,2-dimethyl-3-butenyl)carbamic acid 1,1-dimethylethyl ester]"
13,2.14,"CCC(C)(C)C(NC(=O)OC(C)(C)C)C(=O)Nc1n[nH]c(=S)s1 (stereo not drawn) [Example 23, (1-(((4,5-dihydro-5-thioxo-1,3,4-thiadiazol-2-yl)amino)carbonyl)-2,2-dimethylbutyl)carbamic acid 1,1-dimethylethyl ester]"
14,1.98,"CC(C)(C)OC(=O)NC(C(=O)Nc1n[nH]c(=S)s1)c1ccccc1 (stereo not drawn) [Example 24, [2-[(4,5-dihydro-5-thioxo-1,3,4-thiadiazol-2-yl)amino]-2-oxo-1-phenylethyl]carbamic acid 1,1-dimethylethyl ester]"
15,2.48,"CC(C)(C)OC(=O)N[C@@H](Cc1ccc(NC(=O)OCc2ccccc2)cc1)C(=O)Nc1n[nH]c(=S)s1 [Example 25, (S)-[4-[3-[(4,5-dihydro-5-thioxo-1,3,4-thiadiazol-2-yl)amino]-2-[[(1,1-dimethylethoxy)carbonyl]amino]-3-oxopropyl]phenyl]carbamic acid phenylmethyl ester]"
16,0.24,"CC(C)(C)[C@H](NC(=O)CCc1ccccc1)C(=O)Nc1n[nH]c(=S)s1 [Example 26, (S)-N-[1-[[(4,5-dihydro-5-thioxo-1,3,4-thiadiazol-2-yl)amino]carbonyl]-2,2-dimethylpropyl]benzenpropanamide]"
17,0.91,"CC(C)(C)[C@H](NC(=O)CCc1c(F)c(F)c(F)c(F)c1F)C(=O)Nc1n[nH]c(=S)s1 [Example 27, (S)-N-[1-[[(4,5-dihydro-5-thioxo-1,3,4-thiadiazol-2-yl)amino]carbonyl]-2,2-dimethylpropyl]-2,3,4,5,6-pentafluorobenzenepropanamide]"
